Measured values published in patent publication US20160137639A1, “TRIAZOLE-ISOXAZOLE COMPOUND AND MEDICAL USE THEREOF” (JAPAN TOBACCO INC., priority 2012, published 2016).
Read-outs that look alike come from different tables or passages of the source.

How the values were obtained:
human RORγ = molecular target: T1, human RORγ (Homo sapiens, UniProt P51449); assay: Luciferase reporter gene assay of inhibitory effect against RORγ transcriptional activity (GAL4-hRORγ plasmid in CHO cells); format: cell-based
T1 construct: human, NM_005060.3 and from Ser253 to Lys518; expressed in transfected cells; host or cells: CHO cells (transient co-transfection with pG5-Luc reporter)
T1 sequence (P51449 253-518): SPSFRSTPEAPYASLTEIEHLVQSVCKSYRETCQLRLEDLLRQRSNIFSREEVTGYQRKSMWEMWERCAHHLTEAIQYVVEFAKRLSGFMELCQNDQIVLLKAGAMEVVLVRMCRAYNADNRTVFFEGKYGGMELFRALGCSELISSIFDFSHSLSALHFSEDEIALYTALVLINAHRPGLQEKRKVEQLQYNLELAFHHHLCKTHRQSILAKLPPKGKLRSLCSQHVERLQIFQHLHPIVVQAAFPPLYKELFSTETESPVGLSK

mouse RORγ = molecular target: T2, mouse RORγ (Mus musculus, UniProt P51450); assay: Luciferase reporter gene assay of inhibitory effect against RORγ transcriptional activity (GAL4-mRORγ plasmid in CHO cells); format: cell-based
T2 construct: mouse, NM_011281.2 and from Ile251 to Lys516; expressed in transfected cells; host or cells: CHO cells (transient co-transfection with pG5-Luc reporter)
T2 sequence (P51450 251-516): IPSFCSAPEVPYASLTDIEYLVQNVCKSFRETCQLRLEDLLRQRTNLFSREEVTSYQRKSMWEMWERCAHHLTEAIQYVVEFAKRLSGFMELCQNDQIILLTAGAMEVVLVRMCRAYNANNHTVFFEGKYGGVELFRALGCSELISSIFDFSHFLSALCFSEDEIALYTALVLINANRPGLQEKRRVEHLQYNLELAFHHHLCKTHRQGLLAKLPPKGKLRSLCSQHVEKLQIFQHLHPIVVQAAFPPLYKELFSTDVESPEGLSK
Summary of the method: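 CHO cells transiently co-transfected with GAL4-mouse RORγ LBD (Ile251–Lys516) and GAL4-dependent luciferase reporter; eight compound concentrations, 0.1% DMSO, 2 days at 37 °C. Luminescence as %-of-vehicle control; EC50 by curve fit, cytotoxic concentrations excluded.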

With `Cc1ccc(NC(=O)CCc2nnc(-c3cc(CC(C)C)on3)n2C2CC2)c(C)c1` [Example F-405] the EC50 (human RORγ; read-out: LUC EC50 (μM) hRORg) was < 3 µM and the EC50 (mouse RORγ; read-out: LUC EC50 (μM) mRORg) was < 3 µM.
With `Cc1ccc(NC(=O)CCc2nnc(C3(O)CC(CC(C)C)C3)n2C2CC2)c(C)c1` (single isomer, unassigned) [Example F-430] the EC50 (human RORγ; read-out: LUC EC50 (μM) hRORg) was < 3 µM and the EC50 (mouse RORγ; read-out: LUC EC50 (μM) mRORg) was < 3 µM.
In the case of `Cc1ccc(NC(=O)C[C@H](CCC(=O)O)c2noc(-c3cc(CC(C)C)nn3C)c2C2CC2)c(Cl)c1` [Example E-25], the EC50 (human RORγ; read-out: LUC EC50 (μM) hRORg) is reported as > 3 µM and the EC50 (mouse RORγ; read-out: LUC EC50 (μM) mRORg) is reported as < 3 µM.
For `Cc1ccc(NC(=O)C[C@H](CCC(=O)O)c2noc(-c3cc(CCC(C)(C)C)on3)c2C2CC2)c(C)c1` [Example E-32], the EC50 (human RORγ; read-out: LUC EC50 (μM) hRORg) was < 3 µM and the EC50 (mouse RORγ; read-out: LUC EC50 (μM) mRORg) was < 3 µM.
In the case of `CCn1c(CCC(=O)Nc2cccc(Cl)c2Cl)nnc1C1Cc2ccccc2C1` [Example F-30], the EC50 (human RORγ; read-out: LUC EC50 (μM) hRORg) is reported as > 3 µM and the EC50 (mouse RORγ; read-out: LUC EC50 (μM) mRORg) is reported as < 3 µM.
`Cc1ccc(NC(=O)C[C@H](CCC(=O)O)c2noc(-c3cc(C4C(C)(C)C4(C)C)on3)c2C2CC2)c(Cl)c1` [Example E-44] was tested, and the EC50 (human RORγ; read-out: LUC EC50 (μM) hRORg) was < 3 µM and the EC50 (mouse RORγ; read-out: LUC EC50 (μM) mRORg) was < 3 µM.
In the case of `C=CCC(CC(=O)Nc1ccc(C)cc1C)c1nnc([C@H]2C[C@@H](CC(C)C)C2)n1C1CC1` (mixture of isomers) [Example F-509], the EC50 (human RORγ; read-out: LUC EC50 hRORg) is reported as < 3 µM and the EC50 (mouse RORγ; read-out: LUC EC50 mRORg) is reported as < 3 µM.
`C=CCC(CC(=O)NCc1ccc(C)cc1OC)c1nnc(CCC2CCCCC2)n1C1CC1` (racemic) [Example F-246] was tested, and the EC50 (human RORγ; read-out: LUC EC50 (μM) hRORg) was < 3 µM and the EC50 (mouse RORγ; read-out: LUC EC50 (μM) mRORg) was < 3 µM.
With `Cc1ccc(C(F)(F)F)cc1NC(=O)CCc1nnc(CCC(C)C)n1C1CC1` [Example F-151] the EC50 (human RORγ; read-out: LUC EC50 (μM) hRORg) was > 3 µM and the EC50 (mouse RORγ; read-out: LUC EC50 (μM) mRORg) was > 3 µM.
In the case of `CC1(C(F)(F)c2cc(-c3onc([C@@H](CCC(=O)O)CC(=O)Nc4ccc(Cl)cc4F)c3C3CC3)no2)CC1` [Example E-67], the EC50 (human RORγ; read-out: LUC EC50 (μM) hRORg) is reported as < 3 µM and the EC50 (mouse RORγ; read-out: LUC EC50 (μM) mRORg) is reported as < 3 µM.
`CCn1c(CCC2CCCCC2)nnc1[C@H]1C[C@@H]1C(=O)Nc1cccc2ccccc12` (racemic) [Example F-36] was tested, and the EC50 (human RORγ; read-out: LUC EC50 (μM) hRORg) was > 3 µM and the EC50 (mouse RORγ; read-out: LUC EC50 (μM) mRORg) was > 3 µM.
In the case of `Cc1ccc(NC(=O)[C@H]2CN(c3nc(C)cs3)C[C@@H]2c2nnc(CCCC(C)(C)C)n2C2CC2)c(C)c1` (racemic) [Example F-448], the EC50 (human RORγ; read-out: LUC EC50 (μM) hRORg) is reported as < 3 µM and the EC50 (mouse RORγ; read-out: LUC EC50 (μM) mRORg) is reported as < 3 µM.
`CC(=O)N1C[C@H](C(=O)Nc2ccc(C)cc2C)[C@@H](c2nnc(-c3cnn(C(C)C)c3)n2C2CC2)C1` (racemic) [Example F-368] was tested, and the EC50 (human RORγ; read-out: LUC EC50 (μM) hRORg) was > 3 µM and the EC50 (mouse RORγ; read-out: LUC EC50 (μM) mRORg) was > 3 µM.
`Cc1ccc(NC(=O)CCc2nnc(-c3ccc(CC(C)C)cc3)n2C2CC2)c(C)c1` [Example F-404] was tested, and the EC50 (human RORγ; read-out: LUC EC50 (μM) hRORg) was < 3 µM and the EC50 (mouse RORγ; read-out: LUC EC50 (μM) mRORg) was < 3 µM.
`CC(C)(C)Cc1cc(-c2noc([C@@H](CCC(=O)O)CC(=O)Nc3ccc(Cl)cc3Cl)c2C2CC2)no1` [Example E-74] was tested, and the EC50 (human RORγ; read-out: LUC EC50 (μM) hRORg) was < 3 µM and the EC50 (mouse RORγ; read-out: LUC EC50 (μM) mRORg) was < 3 µM.
For `CCn1c(CCC(=O)Nc2cccc3ccccc23)nnc1CCC(C)C` [Example F-19], the EC50 (human RORγ; read-out: LUC EC50 (μM) hRORg) was > 3 µM and the EC50 (mouse RORγ; read-out: LUC EC50 (μM) mRORg) was < 3 µM.
`Cc1ccc(NC(=O)CCc2nnc(CCC3CCCCC3)n2[C@@H]2C[C@H]2C)c(C)c1` (racemic) [Example F-141] was tested, and the EC50 (human RORγ; read-out: LUC EC50 (μM) hRORg) was > 3 µM and the EC50 (mouse RORγ; read-out: LUC EC50 (μM) mRORg) was < 3 µM.
`Cc1ccc(NC(=O)C[C@H](CCc2noc(=O)[nH]2)c2noc([C@H]3C[C@@H](CC(C)C)C3)c2C2CC2)c(C)c1` [Example F-643] was tested, and the EC50 (human RORγ; read-out: LUC EC50 hRORg) was < 3 µM and the EC50 (mouse RORγ; read-out: LUC EC50 mRORg) was < 3 µM.
With `COc1cccc(NC(=O)CCc2nnc(CCC(C)C)n2C2CC2)c1C` [Example F-85] the EC50 (human RORγ; read-out: LUC EC50 (μM) hRORg) was > 3 µM and the EC50 (mouse RORγ; read-out: LUC EC50 (μM) mRORg) was > 3 µM.
With `CCN(CC)CC(=O)N1C[C@H](C(=O)Nc2ccc(C)cc2C)[C@@H](c2nnc([C@H]3C[C@@H](CC(C)(C)C)C3)n2C2CC2)C1` [Example F-650] the EC50 (human RORγ; read-out: LUC EC50 hRORg) was < 3 µM and the EC50 (mouse RORγ; read-out: LUC EC50 mRORg) was < 3 µM.
`Cc1ccc(NC(=O)C[C@H](CCC(=O)O)c2onc([C@H]3C[C@@H](CC(C)(C)C)C3)c2C2CC2)c(Cl)c1` [Example F-715, (S)-5-(2-Chloro-4-methyl-phenylcarbamoyl)-4-{4-cyclopropyl-3-[3-(2,2-dimethyl-propyl)-cyclobutyl]-isoxazol-5-yl}-pentanoic acid] was tested, and the EC50 (human RORγ; read-out: LUC EC50 hRORg) was < 3 µM and the EC50 (mouse RORγ; read-out: LUC EC50 mRORg) was < 3 µM.
With `Cc1ccc(NC(=O)C[C@H](CCC(=O)O)c2noc(-c3cc(CCC(C)C)on3)c2C(F)(F)F)c(F)c1` [Example E-13] the EC50 (human RORγ; read-out: LUC EC50 (μM) hRORg) was > 3 µM and the EC50 (mouse RORγ; read-out: LUC EC50 (μM) mRORg) was < 3 µM.
